Source: ChEMBL document CHEMBL1158653, “Plant anticancer agents X. Isolation of camptothecin and 9-methoxycamptothecin from Ervatamia heyneana” (1979)
In brackets after ≈: the same amount, converted by molar mass.

Key:
Type in all cases: functional
[1] = test system: KB; assay: Cytotoxicity against human KB cells; settings: read-out: ED50 (the source's name)
[2] = test system: P388; assay: Cytotoxicity against mouse P388 cells; settings: read-out: ED50 (the source's name)
[3] = test system: P388; assay: Cytotoxicity against mouse P388 cells in in vivo based assay at 1.56 mg/kg relative to control
[4] = test system: P388; assay: Cytotoxicity against mouse P388 cells in in vivo based assay at 0.78 mg/kg relative to control

| SMILES | EC50 [1] | EC50 [2] | T/C [3] | T/C [4] |
| --- | --- | --- | --- | --- |
| CC[C@@]1(O)C(=O)OCc2c1cc1n(c2=O)Cc2cc3c(OC)cccc3nc2-1 | 0.17 µg/mL (≈ 0.449 µM) | 0.53 µg/mL (≈ 1.4 µM) | – | – |
| CC[C@@]1(O)C(=O)OCc2c1cc1n(c2=O)Cc2cc3ccccc3nc2-1 [CAMPTOTHECIN] | – | – | 181% | 175% |
